Here are results for seven compounds from patent US20250353891A1 (MEDIMMUNE LIMITED, priority 2022, published 2025).

The structures appear in SMILES notation. Starred links: 1 amine or outer side, 2 acyl side, 3 side chain; linkers in the order of their positions; H or OH if unused. Non-standard residues stand in square brackets, D forms with d. Residues, ends and D or L forms follow the SMILES beside them. Groups on a side chain read outwards from the residue. *: point of attachment. C20 diacid = O=C(O)CCCCCCCCCCCCCCCCCCC(=O)*; γGlu = O=C(O)[C@H](CCC(=O)[*:2])N[*:1]; αMeF = C[C@](N)(Cc1ccccc1)C(=O)O; AEEA = NCCOCCOCC(=O)O; Aib = CC(C)(N)C(=O)O

Test [1] deals with human GLP-1 receptor (hGLP-1R) (Homo sapiens, UniProt P43220). Nature of the test: cAMP production (HTRF) in CHO cells expressing hGLP-1R. The class given is cell-based. More on the design: expressed in transfected cells. The settings on record: for EC50: Table 6, peptides modified at position 17, cAMP in CHO hGLP-1R cells, geometric mean, read-out: hGLP-1R EC50; for % Relative Potency Ratio: Table 6, % GLP-1R activity relative to GLP-1 / % GlucR activity relative to glucagon. The essentials: (§1)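 Potency values represent EC50 from 4-parameter logistic curves of HTRF % Delta F signal. Receptor-expressing CHO cells (hGCGR 2×10^5 cells/mL, hGLP-1R 1×10^5 cells/mL) were exposed for 30 min at room temperature before two-step cAMP detection.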
Sequence of human GLP-1 receptor (hGLP-1R) (P43220 24-463): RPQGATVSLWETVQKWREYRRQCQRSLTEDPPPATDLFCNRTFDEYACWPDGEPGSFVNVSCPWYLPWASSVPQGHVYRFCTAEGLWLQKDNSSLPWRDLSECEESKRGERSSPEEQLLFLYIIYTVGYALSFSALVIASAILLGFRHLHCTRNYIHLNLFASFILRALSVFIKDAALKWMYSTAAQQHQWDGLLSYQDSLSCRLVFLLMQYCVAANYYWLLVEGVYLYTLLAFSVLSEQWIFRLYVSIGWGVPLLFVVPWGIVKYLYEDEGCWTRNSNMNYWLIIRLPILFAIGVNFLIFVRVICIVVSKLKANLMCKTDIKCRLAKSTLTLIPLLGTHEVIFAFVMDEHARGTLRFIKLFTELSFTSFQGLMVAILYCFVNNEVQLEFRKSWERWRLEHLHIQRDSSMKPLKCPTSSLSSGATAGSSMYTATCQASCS
A general note: Changes in cAMP serve as a functional read-out for many G protein-coupled receptors.

For test [2], the target named is human glucagon receptor (hGCGR) (Homo sapiens, UniProt P47871). Nature of the test: cAMP production (HTRF) in CHO cells expressing hGCGR. The class given is cell-based. More on the design: expressed in transfected cells. The settings on record: Table 6, peptides modified at position 17; cAMP in CHO hGCGR cells; geometric mean; read-out: hGluc-R EC50. In outline:
as §1

By EC50 is commonly meant the concentration giving half of the maximal effect.

Sequence of human glucagon receptor (hGCGR) (P47871 26-477): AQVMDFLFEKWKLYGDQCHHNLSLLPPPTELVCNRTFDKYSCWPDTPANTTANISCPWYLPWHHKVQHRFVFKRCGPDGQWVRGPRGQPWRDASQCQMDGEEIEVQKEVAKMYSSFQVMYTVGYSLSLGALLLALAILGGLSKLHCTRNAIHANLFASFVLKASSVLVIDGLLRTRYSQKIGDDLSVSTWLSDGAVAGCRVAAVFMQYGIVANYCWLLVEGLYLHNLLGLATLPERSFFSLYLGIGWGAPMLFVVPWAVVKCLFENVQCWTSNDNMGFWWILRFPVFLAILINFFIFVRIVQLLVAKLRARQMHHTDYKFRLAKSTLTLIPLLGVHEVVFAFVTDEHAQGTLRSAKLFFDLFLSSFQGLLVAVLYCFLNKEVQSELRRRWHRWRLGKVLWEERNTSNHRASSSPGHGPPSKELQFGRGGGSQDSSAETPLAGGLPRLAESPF

`CC(C)C[C@H](NC(=O)[C@H](Cc1c[nH]c2ccccc12)NC(=O)[C@H](CCC(N)=O)NC(=O)[C@@H](NC(=O)[C@H](Cc1ccccc1)NC(=O)[C@H](CC(=O)O)NC(=O)[C@H](CCC(N)=O)NC(=O)[C@H](C)NC(=O)[C@H](CCCNC(=N)N)NC(=O)[C@H](CCCCNC(=O)COCCOCCNC(=O)COCCOCCNC(=O)CC[C@H](NC(=O)CCCCCCCCCCCCCCCCCCC(=O)O)C(=O)O)NC(=O)[C@@H](NC(=O)[C@H](CC(=O)O)NC(=O)[C@H](CC(C)C)NC(=O)[C@](C)(Cc1ccccc1)NC(=O)[C@H](CCCCN)NC(=O)[C@H](CO)NC(=O)[C@@H](NC(=O)[C@H](CC(=O)O)NC(=O)[C@H](CO)NC(=O)[C@@H](NC(=O)[C@H](Cc1ccccc1)NC(=O)[C@@H](NC(=O)CNC(=O)[C@H](CCC(N)=O)NC(=O)C(C)(C)NC(=O)[C@@H](N)Cc1c[nH]cn1)[C@@H](C)O)[C@@H](C)O)C(C)C)[C@@H](C)O)C(C)C)C(=O)N[C@@H](CC(C)C)C(=O)N[C@@H](CCC(=O)O)C(=O)NC(C)(C)C(=O)N[C@@H](CCCCN)C(N)=O` [Peptide 505] (H-H[Aib]QGTFTSDVSK[αMeF]LDTK([AEEA-AEEA-γGlu-C20 diacid])RAQDFVQWLLE[Aib]K-NH2): in test [1], the EC50 amounted to 0.0421 nM and the “% Relative Potency Ratio” value was found to be 9.0. The EC50 in test [2] was determined as 0.191 nM.

Take `CC(C)C[C@H](NC(=O)[C@H](Cc1c[nH]c2ccccc12)NC(=O)[C@H](C)NC(=O)[C@@H](NC(=O)[C@H](Cc1ccccc1)NC(=O)[C@H](CC(=O)O)NC(=O)[C@H](CCCNC(=N)N)NC(=O)[C@H](C)NC(=O)[C@H](CCCNC(=N)N)NC(=O)[C@H](CCCCNC(=O)COCCOCCNC(=O)COCCOCCNC(=O)CC[C@H](NC(=O)CCCCCCCCCCCCCCCCCCC(=O)O)C(=O)O)NC(=O)[C@@H](NC(=O)[C@H](CC(=O)O)NC(=O)[C@H](CC(C)C)NC(=O)[C@](C)(Cc1ccccc1)NC(=O)[C@H](CCCCN)NC(=O)[C@H](CO)NC(=O)[C@@H](NC(=O)[C@H](CC(=O)O)NC(=O)[C@H](CO)NC(=O)[C@@H](NC(=O)[C@H](Cc1ccccc1)NC(=O)[C@@H](NC(=O)CNC(=O)[C@H](CCC(N)=O)NC(=O)C(C)(C)NC(=O)[C@@H](N)Cc1c[nH]cn1)[C@@H](C)O)[C@@H](C)O)C(C)C)[C@@H](C)O)C(C)C)C(=O)N[C@@H](CC(C)C)C(=O)N[C@@H](CCC(=O)O)C(=O)NC(C)(C)C(=O)NCC(=O)O` [Peptide 506] (H-H[Aib]QGTFTSDVSK[αMeF]LDTK([AEEA-AEEA-γGlu-C20 diacid])RARDFVAWLLE[Aib]G-OH; N-terminus assumed): the EC50 in test [1] worked out at 0.162 nM; in test [2] it was 0.149 nM. In test [1], the “% Relative Potency Ratio” value was determined as 1.8.

As for `CC(C)C[C@H](NC(=O)[C@H](Cc1c[nH]c2ccccc12)NC(=O)[C@H](C)NC(=O)[C@@H](NC(=O)[C@H](Cc1ccccc1)NC(=O)[C@H](CC(=O)O)NC(=O)[C@H](CCCNC(=N)N)NC(=O)[C@H](C)NC(=O)[C@H](CCCNC(=N)N)NC(=O)[C@H](CCCCNC(=O)COCCOCCNC(=O)COCCOCCNC(=O)CC[C@H](NC(=O)CCCCCCCCCCCCCCCCCCC(=O)O)C(=O)O)NC(=O)[C@@H](NC(=O)[C@H](CC(=O)O)NC(=O)[C@H](CC(C)C)NC(=O)[C@](C)(Cc1ccccc1)NC(=O)[C@H](CCCCN)NC(=O)[C@H](CO)NC(=O)[C@@H](NC(=O)[C@H](CC(=O)O)NC(=O)[C@H](CO)NC(=O)[C@@H](NC(=O)[C@H](Cc1ccccc1)NC(=O)[C@@H](NC(=O)CNC(=O)[C@H](CCC(N)=O)NC(=O)C(C)(C)NC(=O)[C@@H](N)Cc1c[nH]cn1)[C@@H](C)O)[C@@H](C)O)C(C)C)[C@@H](C)O)C(C)C)C(=O)N[C@@H](CC(C)C)C(=O)N[C@@H](CCC(=O)O)C(=O)NC(C)(C)C(=O)NCC(N)=O` [Peptide 507], in test [1], the EC50 was found to be 0.0529 nM and the “% Relative Potency Ratio” value is 3.2. The EC50 in test [2] was 0.0866 nM.

In the case of `CC(C)C[C@H](NC(=O)[C@H](Cc1c[nH]c2ccccc12)NC(=O)[C@H](CCCNC(=N)N)NC(=O)[C@@H](NC(=O)[C@H](Cc1ccccc1)NC(=O)[C@H](CC(=O)O)NC(=O)[C@H](CCC(N)=O)NC(=O)[C@H](C)NC(=O)[C@H](CCCNC(=N)N)NC(=O)[C@H](CCCCNC(=O)COCCOCCNC(=O)COCCOCCNC(=O)CC[C@H](NC(=O)CCCCCCCCCCCCCCCCCCC(=O)O)C(=O)O)NC(=O)[C@H](CO)NC(=O)[C@H](CCC(=O)O)NC(=O)[C@H](CC(C)C)NC(=O)[C@](C)(Cc1ccccc1)NC(=O)[C@H](CCCCN)NC(=O)[C@H](CO)NC(=O)[C@@H](NC(=O)[C@H](CC(=O)O)NC(=O)[C@H](CO)NC(=O)[C@@H](NC(=O)[C@H](Cc1ccccc1)NC(=O)[C@@H](NC(=O)CNC(=O)[C@H](CCC(N)=O)NC(=O)C(C)(C)NC(=O)[C@@H](N)Cc1c[nH]cn1)[C@@H](C)O)[C@@H](C)O)C(C)C)C(C)C)C(=O)N[C@H](C(=O)N[C@@H](CCC(=O)O)C(=O)NC(C)(C)C(=O)NCC(N)=O)C(C)C` [Peptide 508] (H-H[Aib]QGTFTSDVSK[αMeF]LESK([AEEA-AEEA-γGlu-C20 diacid])RAQDFVRWLVE[Aib]G-NH2), in test [1], the 50% effective concentration (EC50) was 0.0679 nM and the “% Relative Potency Ratio” value was found to be 81.6. Further, the concentration for a half-maximal effect (EC50) in test [2] worked out at 2.8 nM.

In the case of `CC(C)C[C@H](NC(=O)[C@H](Cc1c[nH]c2ccccc12)NC(=O)[C@H](CCCNC(=N)N)NC(=O)[C@@H](NC(=O)[C@H](Cc1ccccc1)NC(=O)[C@H](CC(=O)O)NC(=O)[C@H](CCC(N)=O)NC(=O)[C@H](C)NC(=O)[C@H](CCCNC(=N)N)NC(=O)[C@H](CCCCNC(=O)COCCOCCNC(=O)COCCOCCNC(=O)CC[C@H](NC(=O)CCCCCCCCCCCCCCCCCCC(=O)O)C(=O)O)NC(=O)[C@H](CO)NC(=O)[C@H](CCC(=O)O)NC(=O)[C@H](CC(C)C)NC(=O)[C@](C)(Cc1ccccc1)NC(=O)[C@H](CCCCN)NC(=O)[C@H](CO)NC(=O)[C@@H](NC(=O)[C@H](CC(=O)O)NC(=O)[C@H](CO)NC(=O)[C@@H](NC(=O)[C@H](Cc1ccccc1)NC(=O)[C@@H](NC(=O)CNC(=O)[C@H](CCC(N)=O)NC(=O)C(C)(C)NC(=O)[C@@H](N)Cc1c[nH]cn1)[C@@H](C)O)[C@@H](C)O)C(C)C)C(C)C)C(=O)N[C@@H](CC(C)C)C(=O)NC(C)(C)C(=O)N[C@H](C(=O)N[C@@H](CCC(=O)O)C(=O)O)[C@@H](C)O` [Peptide 509] (H-H[Aib]QGTFTSDVSK[αMeF]LESK([AEEA-AEEA-γGlu-C20 diacid])RAQDFVRWLL[Aib]TE-OH; N-terminus assumed), in test [1], the EC50 worked out at 0.594 nM and the “% Relative Potency Ratio” value came to 10.1. In addition, the EC50 in test [2] was 3.02 nM.

For the compound `CC(C)C[C@H](NC(=O)[C@H](Cc1c[nH]c2ccccc12)NC(=O)[C@H](CCCNC(=N)N)NC(=O)[C@@H](NC(=O)[C@H](Cc1ccccc1)NC(=O)[C@H](CC(=O)O)NC(=O)[C@H](CCCNC(=N)N)NC(=O)[C@H](C)NC(=O)[C@H](CCCNC(=N)N)NC(=O)[C@H](CCCCNC(=O)COCCOCCNC(=O)COCCOCCNC(=O)CC[C@H](NC(=O)CCCCCCCCCCCCCCCCCCC(=O)O)C(=O)O)NC(=O)[C@@H](NC(=O)[C@H](CC(=O)O)NC(=O)[C@H](CC(C)C)NC(=O)[C@](C)(Cc1ccccc1)NC(=O)[C@H](CCCCN)NC(=O)[C@H](CO)NC(=O)[C@@H](NC(=O)[C@H](CC(=O)O)NC(=O)[C@H](CO)NC(=O)[C@@H](NC(=O)[C@H](Cc1ccccc1)NC(=O)[C@@H](NC(=O)CNC(=O)[C@H](CCC(N)=O)NC(=O)C(C)(C)NC(=O)[C@@H](N)Cc1c[nH]cn1)[C@@H](C)O)[C@@H](C)O)C(C)C)[C@@H](C)O)C(C)C)C(=O)N[C@@H](CC(C)C)C(=O)NC(C)(C)C(=O)N[C@@H](CCC(=O)O)C(=O)O` [Peptide 510] (H-H[Aib]QGTFTSDVSK[αMeF]LDTK([AEEA-AEEA-γGlu-C20 diacid])RARDFVRWLL[Aib]E-OH; N-terminus assumed), in test [1], the EC50 came out at 0.176 nM and the “% Relative Potency Ratio” value is recorded as 1.3. Besides, the 50% effective concentration (EC50) in test [2] was found to be 0.118 nM.

As for `CC(C)C[C@H](NC(=O)[C@H](Cc1c[nH]c2ccccc12)NC(=O)[C@H](CCCNC(=N)N)NC(=O)[C@@H](NC(=O)[C@H](Cc1ccccc1)NC(=O)[C@H](CC(=O)O)NC(=O)[C@H](CCCNC(=N)N)NC(=O)[C@H](C)NC(=O)[C@H](CCCNC(=N)N)NC(=O)[C@H](CCCCNC(=O)COCCOCCNC(=O)COCCOCCNC(=O)CC[C@H](NC(=O)CCCCCCCCCCCCCCCCCCC(=O)O)C(=O)O)NC(=O)[C@@H](NC(=O)[C@H](CC(=O)O)NC(=O)[C@H](CC(C)C)NC(=O)[C@](C)(Cc1ccccc1)NC(=O)[C@H](CCCCN)NC(=O)[C@H](CO)NC(=O)[C@@H](NC(=O)[C@H](CC(=O)O)NC(=O)[C@H](CO)NC(=O)[C@@H](NC(=O)[C@H](Cc1ccccc1)NC(=O)[C@@H](NC(=O)CNC(=O)[C@H](CCC(N)=O)NC(=O)C(C)(C)NC(=O)[C@@H](N)Cc1c[nH]cn1)[C@@H](C)O)[C@@H](C)O)C(C)C)[C@@H](C)O)C(C)C)C(=O)N[C@@H](CC(C)C)C(=O)NC(C)(C)C(=O)N[C@@H](CCC(=O)O)C(N)=O` [Peptide 511] (H-H[Aib]QGTFTSDVSK[αMeF]LDTK([AEEA-AEEA-γGlu-C20 diacid])RARDFVRWLL[Aib]E-NH2; N-terminus assumed), in test [1], the half-maximal effective concentration (EC50) was 0.118 nM and the “% Relative Potency Ratio” value was determined as 2.4. In addition, the concentration for a half-maximal effect (EC50) in test [2] is 0.14 nM.
